In patent publication US20110212100A1, “METHODS FOR MODULATING DEVELOPMENT AND EXPANSION OF IL-17 EXPRESSING CELLS” (priority 2007, published 2011):
Values joined by “and” are separate entries in the source; they are usually repeats but may differ in a detail not shown here. Identical values can stand only once. Like-named read-outs stand apart in the source and are kept apart here.

Tests used:
cultured fibroblasts = test: Non-specific effects on cultured fibroblasts; format: cell-based
Description: (§1) At concentrations over 80 nM, HF has a variety of non-specific effects on both T-cells and fibroblasts. […] At the recommended tolerated dose for chronic treatment (0.5 mg/day), plasma levels of HF were ˜0.5 ng/ml (1 nM). (de.Jonge et al., Eur J Cancer, vol. 42(12):1768-74 (2006)).

mice = conditions: IP, cited from earlier work
[1] = test system: Th17 differentiation of CD4+ CD25− T cells; test: Th17 differentiation (IL-17+ IFNγ− cells) of T cells activated with TGFβ plus IL-6; format: cell-based; conditions: Mus musculus, T-cell, 96 h; murine CD4+ CD25− T cells, restimulation on day 4-5; ± 0.4 nM; read-out: IC50 of repression of Th17 differentiation (percentage of IL-17+ IFNγ− cells)
[2] = cited from earlier work
[3] = test system: TGFβ-induced Smad phosphorylation; test: TGFβ signaling in T and B cells (Smad phosphorylation, lymphocyte responses to TGFβ); format: cell-based, mouse; conditions: HF 2.5-40 nM or 10 nM; SB-431542 10 μM
Description: T cells were then activated in the presence or absence of 3 ng/ml. TGFβ. Whole cell extracts were prepared after 1 hour of stimulation and western blot analyses were performed using the indicated antibodies.
Western blotting: Whole cell lysates were generated from T cells activated for the indicated times. For STAT3 and Smad2/3 western blots cells were harvested, washed in PBS and lysed in 50 mM Tris, pH 7.4, 0.1% SDS, 1% Triton-X100, 140 mM NaCl, 1 mM EDTA, 1 mM EGTA supplemented with protease inhibitors tablets (Roche-Germany), 1 mM NaF and 1 mM Na3VO4. For eIF2α and ATF4 western blots, cells were harvested as above and lysed in 50 mM Tris, pH 7.4, 2% SDS, 20% glycerol and 2 mM EDTA supplemented with protease and phosphatase inhibitors as above. All lysates were cleared via centrifugation and 15-30 μg of protein was resolved by SDS-PAGE. Protein was transferred to nitrocellulose membranes, blocked and blotted using specific antibodies. Antibodies used for western blot analysis were anti-phospho-Smad2, anti-STAT3 (pY705), anti-STAT3, anti-eIF2α^pS51, anti-eIF2α, anti-GCN2^pT898, anti-GCN2 (all from cell signaling technology, Danvers, Mass.). Anti-ATF4/CREB2 and anti-β-actin were purchased from Santa Cruz biotechnology (Santa Cruz, Calif.). […]

[4] = test system: Xenopus feeding stage tadpoles; test: Toxicity in Xenopus feeding stage tadpoles; format: in vivo; conditions: 400 nM HF, 7 days
Description: as §1

[5] = test system: CD4+ CD25− T cells activated in Th17-priming conditions; format: cell-based, mouse; conditions: 3 hr; 10 nM HF vs MAZ1310; mean ± SD, triplicate

In the case of `O=C(CC1NCCCC1O)Cn1cnc2cc(Br)c(Cl)cc2c1=O` (racemic) [HF, 7-bromo-6-chloro-3-[3-(3-hydroxy-2-piperidinyl)-2-oxopropyl]-4(3H)-quinazolinone], the “concentration inhibiting protein synthesis and cell proliferation in fibroblast culture” value (cultured fibroblasts) is reported as “over 80 nM”, the “signaling downstream of mTOR in fibroblasts, in words” value (cultured fibroblasts) is reported as “did not inhibit signaling downstream of mTOR” and the “death of cultured fibroblasts, in words” value (cultured fibroblasts; doses up to 500 nM over 5 days) is reported as “does not, however, cause death”. The “radiation induced fibrosis, in words” value (mice; 1-5 μg/mouse (Xavier et al.)) was “prevented radiation induced fibrosis but not normal healing of irradiated tissue”, the “toxic effect in mice, in words” value (mice; 1-5 μg/mouse) was “without evident toxic effect” and the IC50 [1] was 3.6 nM. The peak plasma concentration ([2]; oral 3.5 mg/day) was 3 ng/ml and ~8 nM, the “dose at which dose limiting toxicity occurred” value ([2]; oral (de Jonge et al.)) was 3.5 mg/day and the “dose limiting toxicity, in words” value ([2]; oral) was “nausea and vomiting”. The “recommended tolerated dose for chronic treatment” value ([2]; oral) was 0.5 mg/day, the “dose limiting toxicity, in words” value ([2]; oral, listed as halofuginone) was “nausea” and the “effect on TGFβ-induced Smad phosphorylation and other lymphocyte responses to TGFβ, in words” value [3] was “inhibited neither TGFβ-induced Smad phosphorylation”. The “toxic effects in tadpoles, in words” value [4] was “does not have detectable toxic effects”, the “Aars transcript, fold increase HF vs. MAZ1310-3 hr” value [5] was 2.7 ± 0.4 fold and the “Aff1 transcript, fold increase HF vs. MAZ1310-3 hr” value [5] was 2.3 ± 0.4 fold. For the same compound, the “Aldh18a1 transcript, fold increase HF vs. MAZ1310-3 hr” value [5] was 2.1 ± 0.5 fold, the “Asns transcript, fold increase HF vs. MAZ1310-3 hr” value [5] was 6.1 ± 1.2 fold and the “Atf3 transcript, fold increase HF vs. MAZ1310-3 hr” value [5] was 3.0 ± 0.1 fold. The “Atf5 transcript, fold increase HF vs. MAZ1310-3 hr” value [5] was 2.4 ± 0.1 fold, the “Cars transcript, fold increase HF vs. MAZ1310-3 hr” value [5] was 2.2 ± 0.4 fold and the “Cd274 transcript, fold increase HF vs. MAZ1310-3 hr” value [5] was 2.1 ± 0.2 fold. For the same compound, the “Cebpb transcript, fold increase HF vs. MAZ1310-3 hr” value [5] was 3.9 ± 0.6 fold, the “Cebpg transcript, fold increase HF vs. MAZ1310-3 hr” value [5] was 2.5 ± 0.5 fold and the “Chd2 transcript, fold increase HF vs. MAZ1310-3 hr” value [5] was 2.2 ± 0.3 fold. For the same compound, the “Cldn12 transcript, fold increase HF vs. MAZ1310-3 hr” value [5] was 3.2 ± 0.7 fold, the “Clic4 transcript, fold increase HF vs. MAZ1310-3 hr” value [5] was 2.4 ± 0.2 fold and the “Cth transcript, fold increase HF vs. MAZ1310-3 hr” value [5] was 2.2 ± 0.7 fold. The “Cxcl10 transcript, fold increase HF vs. MAZ1310-3 hr” value [5] was 2.1 ± 0.3 fold, the “D8Ertd56e transcript, fold increase HF vs. MAZ1310-3 hr” value [5] was 2.1 ± 0.3 fold and the “Ddit3 transcript, fold increase HF vs. MAZ1310-3 hr” value [5] was 5.6 ± 1.1 fold. The “Et4Ebp1 transcript, fold increase HF vs. MAZ1310-3 hr” value [5] was 6.8 ± 1.8 fold, the “Gpt2 transcript, fold increase HF vs. MAZ1310-3 hr” value [5] was 10.0 ± 1.2 fold and the “Herpud1 transcript, fold increase HF vs. MAZ1310-3 hr” value [5] was 2.4 ± 0.3 fold. The “Icam1 transcript, fold increase HF vs. MAZ1310-3 hr” value [5] was 2.0 ± 0.1 fold, the “Irf1 transcript, fold increase HF vs. MAZ1310-3 hr” value [5] was 2.0 ± 0.3 fold and the “Lers transcript, fold increase HF vs. MAZ1310-3 hr” value [5] was 2.3 ± 0.3 fold. For the same compound, the “Mpa2l transcript, fold increase HF vs. MAZ1310-3 hr” value [5] was 2.3 ± 0.3 fold, the “Ncoa7 transcript, fold increase HF vs. MAZ1310-3 hr” value [5] was 3.0 ± 0.3 fold and the “Nfkbiz transcript, fold increase HF vs. MAZ1310-3 hr” value [5] was 2.0 ± 0.3 fold. For the same compound, the “Past1 transcript, fold increase HF vs. MAZ1310-3 hr” value [5] was 2.1 ± 0.5 fold, the “Pck2 transcript, fold increase HF vs. MAZ1310-3 hr” value [5] was 4.9 ± 0.8 fold and the “Pdcd1lg2 transcript, fold increase HF vs. MAZ1310-3 hr” value [5] was 3.2 ± 0.7 fold. For the same compound, the “Phgdh transcript, fold increase HF vs. MAZ1310-3 hr” value [5] was 3.8 ± 0.9 fold, the “Psph transcript, fold increase HF vs. MAZ1310-3 hr” value [5] was 3.5 ± 0.4 fold and the “Pvr transcript, fold increase HF vs. MAZ1310-3 hr” value [5] was 2.0 ± 0.3 fold. For the same compound, the “Pycr1 transcript, fold increase HF vs. MAZ1310-3 hr” value [5] was 4.6 ± 0.7 fold, the “Pycs transcript, fold increase HF vs. MAZ1310-3 hr” value [5] was 2.1 ± 0.2 fold and the “Sars1 transcript, fold increase HF vs. MAZ1310-3 hr” value [5] was 2.0 ± 0.3 fold. For the same compound, the “Sesn2 transcript, fold increase HF vs. MAZ1310-3 hr” value [5] was 2.6 ± 0.3 fold, the “Slamf7 transcript, fold increase HF vs. MAZ1310-3 hr” value [5] was 2.2 ± 0.4 fold and the “Slc1a4 transcript, fold increase HF vs. MAZ1310-3 hr” value [5] was 3.2 ± 0.9 fold. For the same compound, the “Slc6a9 transcript, fold increase HF vs. MAZ1310-3 hr” value [5] was 2.4 ± 0.3 fold.
